Assays:
Tyro3 = Tyro3 (Homo sapiens (Human), UniProt Q06418); experiment: TAM Enzymatic Assay (HTRF), Tyro3; format: biochemical; settings: 0.366 nM Tyro3, 60 min
Protocol: The kinase assay buffer contained 50 mM HEPES, pH7.5, 10 mM MgCl2, 1 mM EGTA, 0.01% NP-40 and 2 mM DTT. 0.1 ul test compounds dissolved in DMSO were transferred from compound plates to white 384-well assay plates (Greiner [sequence] plates). […] 4 ul enzyme solution (or assay buffer for the enzyme blank) was added to the appropriate wells in each plate, and then 4 ul/well substrate solution was added to initiate the reaction. The plate was protected from light and incubated at room temperature for 60 min. […] The plate was incubated for 1 h at room temperature, and HTRF (homogenous time resolved fluorescence) signal was measured on a PHERAstar FS plate reader (BMG labtech). Percentage of inhibition was calculated for each concentration and IC50 value was generated from curve fitting with GraphPad Prism software.

phosphor-Axl = phosphor-Axl (Homo sapiens (Human), UniProt P30530); experiment: TAM Enzymatic Assay (HTRF), phosphor-Axl; format: biochemical; settings: 5.1 nM autophosphorylated Axl, 60 min; read-out: Phos-Axl IC50
c-Mer = c-Mer (Homo sapiens (Human), UniProt Q12866); experiment: TAM Enzymatic Assay (HTRF), c-Mer; format: biochemical; settings: 0.0625 nM c-Mer, ATP-containing substrate solution, 60 min
c-Mer, sequence (Q12866 21-999): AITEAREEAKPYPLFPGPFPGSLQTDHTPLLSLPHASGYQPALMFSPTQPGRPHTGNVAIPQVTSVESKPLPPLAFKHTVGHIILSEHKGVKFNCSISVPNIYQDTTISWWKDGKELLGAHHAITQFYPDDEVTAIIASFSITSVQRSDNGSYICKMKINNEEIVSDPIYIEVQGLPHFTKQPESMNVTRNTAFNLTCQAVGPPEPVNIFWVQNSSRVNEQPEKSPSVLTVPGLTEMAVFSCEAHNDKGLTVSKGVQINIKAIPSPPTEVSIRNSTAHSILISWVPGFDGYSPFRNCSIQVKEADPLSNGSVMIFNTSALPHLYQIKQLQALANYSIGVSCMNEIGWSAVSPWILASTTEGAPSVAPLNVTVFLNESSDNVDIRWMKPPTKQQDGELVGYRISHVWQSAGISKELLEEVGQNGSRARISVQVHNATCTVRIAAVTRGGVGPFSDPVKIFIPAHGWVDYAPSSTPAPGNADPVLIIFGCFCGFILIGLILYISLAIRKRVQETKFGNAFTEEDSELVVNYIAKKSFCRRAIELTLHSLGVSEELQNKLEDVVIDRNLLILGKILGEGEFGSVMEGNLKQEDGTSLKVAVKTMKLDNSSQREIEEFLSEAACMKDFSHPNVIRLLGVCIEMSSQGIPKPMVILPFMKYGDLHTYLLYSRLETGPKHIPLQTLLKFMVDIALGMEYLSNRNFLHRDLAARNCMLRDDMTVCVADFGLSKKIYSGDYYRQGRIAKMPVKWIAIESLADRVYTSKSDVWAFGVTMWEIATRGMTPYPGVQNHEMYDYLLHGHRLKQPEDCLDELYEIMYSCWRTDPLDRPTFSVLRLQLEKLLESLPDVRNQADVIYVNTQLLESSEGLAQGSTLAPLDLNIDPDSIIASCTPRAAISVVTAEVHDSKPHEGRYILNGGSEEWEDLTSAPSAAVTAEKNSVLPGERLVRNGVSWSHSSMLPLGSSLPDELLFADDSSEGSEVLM

PI3Kδ = PI3Kδ (Homo sapiens (Human), UniProt O00329); settings: cited from earlier work
PI3Kδ, sequence (O00329 whole entry, species assumed): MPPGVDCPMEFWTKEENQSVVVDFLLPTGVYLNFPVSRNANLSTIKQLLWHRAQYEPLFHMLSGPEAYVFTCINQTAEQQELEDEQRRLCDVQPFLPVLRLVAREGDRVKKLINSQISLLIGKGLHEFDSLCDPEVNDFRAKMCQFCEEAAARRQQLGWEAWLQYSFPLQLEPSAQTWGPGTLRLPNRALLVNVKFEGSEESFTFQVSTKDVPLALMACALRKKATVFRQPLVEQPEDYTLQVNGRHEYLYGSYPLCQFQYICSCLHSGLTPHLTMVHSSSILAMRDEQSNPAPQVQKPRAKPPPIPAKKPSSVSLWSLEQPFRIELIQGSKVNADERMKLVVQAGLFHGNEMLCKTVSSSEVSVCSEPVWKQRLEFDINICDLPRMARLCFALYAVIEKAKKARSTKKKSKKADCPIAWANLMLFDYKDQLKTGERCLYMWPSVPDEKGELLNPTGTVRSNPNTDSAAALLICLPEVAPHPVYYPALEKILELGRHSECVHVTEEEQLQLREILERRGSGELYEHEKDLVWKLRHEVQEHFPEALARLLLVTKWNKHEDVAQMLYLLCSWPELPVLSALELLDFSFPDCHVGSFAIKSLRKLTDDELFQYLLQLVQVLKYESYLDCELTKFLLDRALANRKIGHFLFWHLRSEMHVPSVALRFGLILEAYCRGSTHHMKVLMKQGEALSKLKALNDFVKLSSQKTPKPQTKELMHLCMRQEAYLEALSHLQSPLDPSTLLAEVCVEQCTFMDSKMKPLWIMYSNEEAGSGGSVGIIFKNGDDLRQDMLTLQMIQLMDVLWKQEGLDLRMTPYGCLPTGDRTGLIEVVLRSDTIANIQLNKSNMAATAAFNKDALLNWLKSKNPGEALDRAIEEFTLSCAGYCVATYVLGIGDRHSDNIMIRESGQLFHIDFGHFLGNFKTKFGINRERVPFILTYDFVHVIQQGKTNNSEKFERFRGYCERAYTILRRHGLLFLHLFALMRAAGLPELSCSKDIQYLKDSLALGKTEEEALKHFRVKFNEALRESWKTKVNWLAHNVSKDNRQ
PI3Kδ, sequence (P27986 whole entry partner, species assumed): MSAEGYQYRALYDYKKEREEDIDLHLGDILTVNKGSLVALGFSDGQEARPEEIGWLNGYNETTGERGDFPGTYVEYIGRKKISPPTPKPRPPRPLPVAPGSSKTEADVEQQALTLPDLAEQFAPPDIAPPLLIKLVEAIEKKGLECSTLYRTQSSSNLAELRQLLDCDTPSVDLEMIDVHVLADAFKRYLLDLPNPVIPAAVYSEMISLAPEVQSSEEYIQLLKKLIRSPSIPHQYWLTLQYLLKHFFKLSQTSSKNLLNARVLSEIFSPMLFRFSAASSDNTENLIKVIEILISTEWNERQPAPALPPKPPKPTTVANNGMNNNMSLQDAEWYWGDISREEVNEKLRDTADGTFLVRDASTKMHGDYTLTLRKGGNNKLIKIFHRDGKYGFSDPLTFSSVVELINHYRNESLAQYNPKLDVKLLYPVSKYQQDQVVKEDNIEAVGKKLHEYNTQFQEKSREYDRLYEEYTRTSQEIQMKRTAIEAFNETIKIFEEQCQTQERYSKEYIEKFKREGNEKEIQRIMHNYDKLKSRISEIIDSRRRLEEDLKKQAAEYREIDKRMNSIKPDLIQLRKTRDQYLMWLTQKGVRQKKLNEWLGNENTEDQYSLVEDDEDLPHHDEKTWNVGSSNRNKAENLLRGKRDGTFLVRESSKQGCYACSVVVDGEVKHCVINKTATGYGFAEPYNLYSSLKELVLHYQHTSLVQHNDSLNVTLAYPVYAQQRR

phosphor-Axl, sequence (P30530 26-894): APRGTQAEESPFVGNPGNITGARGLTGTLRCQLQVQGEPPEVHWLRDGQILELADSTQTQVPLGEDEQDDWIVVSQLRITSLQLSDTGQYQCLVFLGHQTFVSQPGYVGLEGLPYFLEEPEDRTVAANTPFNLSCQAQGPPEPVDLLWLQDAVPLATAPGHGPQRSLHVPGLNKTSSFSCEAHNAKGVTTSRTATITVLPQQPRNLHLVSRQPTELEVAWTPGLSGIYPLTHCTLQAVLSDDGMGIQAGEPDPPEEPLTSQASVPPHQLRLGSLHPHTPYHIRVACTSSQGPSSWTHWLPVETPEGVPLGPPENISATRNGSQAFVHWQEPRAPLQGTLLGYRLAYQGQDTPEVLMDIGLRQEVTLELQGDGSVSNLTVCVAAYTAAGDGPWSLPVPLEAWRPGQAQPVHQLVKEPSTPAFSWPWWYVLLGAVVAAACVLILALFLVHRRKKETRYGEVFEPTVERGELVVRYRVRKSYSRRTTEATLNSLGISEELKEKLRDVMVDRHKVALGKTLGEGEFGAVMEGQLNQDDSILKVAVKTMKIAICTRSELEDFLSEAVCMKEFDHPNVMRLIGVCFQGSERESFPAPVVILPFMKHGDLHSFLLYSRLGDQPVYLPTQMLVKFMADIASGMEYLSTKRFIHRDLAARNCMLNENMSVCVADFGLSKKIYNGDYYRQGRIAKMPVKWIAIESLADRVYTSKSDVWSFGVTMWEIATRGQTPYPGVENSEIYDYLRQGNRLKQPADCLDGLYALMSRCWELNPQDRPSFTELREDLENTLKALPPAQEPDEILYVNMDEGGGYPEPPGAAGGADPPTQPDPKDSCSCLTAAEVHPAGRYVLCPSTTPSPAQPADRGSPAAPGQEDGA
Tyro3, sequence (Q06418 41-890): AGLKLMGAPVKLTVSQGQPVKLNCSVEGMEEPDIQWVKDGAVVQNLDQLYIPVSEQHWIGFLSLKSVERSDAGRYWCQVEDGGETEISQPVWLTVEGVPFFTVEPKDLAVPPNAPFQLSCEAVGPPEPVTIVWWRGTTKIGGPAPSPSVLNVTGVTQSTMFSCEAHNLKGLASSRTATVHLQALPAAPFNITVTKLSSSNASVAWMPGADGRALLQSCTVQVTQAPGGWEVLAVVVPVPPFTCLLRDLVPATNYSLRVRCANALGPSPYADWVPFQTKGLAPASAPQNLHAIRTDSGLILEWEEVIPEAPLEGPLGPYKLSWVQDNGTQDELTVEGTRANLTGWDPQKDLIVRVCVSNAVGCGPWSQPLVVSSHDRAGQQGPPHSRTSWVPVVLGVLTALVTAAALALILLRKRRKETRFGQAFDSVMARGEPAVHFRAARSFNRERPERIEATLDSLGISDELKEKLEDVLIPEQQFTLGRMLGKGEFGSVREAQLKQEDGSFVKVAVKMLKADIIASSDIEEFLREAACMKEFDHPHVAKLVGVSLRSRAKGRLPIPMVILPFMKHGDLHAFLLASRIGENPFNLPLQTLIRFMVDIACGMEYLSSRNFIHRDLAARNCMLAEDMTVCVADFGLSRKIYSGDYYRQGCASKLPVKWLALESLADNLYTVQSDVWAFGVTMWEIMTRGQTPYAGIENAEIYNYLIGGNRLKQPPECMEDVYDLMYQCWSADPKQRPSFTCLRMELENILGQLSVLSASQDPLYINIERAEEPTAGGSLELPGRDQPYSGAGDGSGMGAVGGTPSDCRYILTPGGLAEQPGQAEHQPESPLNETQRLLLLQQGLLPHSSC

| Structure (SMILES) | IC50 (Tyro3) [µM] | IC50 (phosphor-Axl) [µM] | IC50 (c-Mer) [µM] | IC50 (PI3Kδ) [µM] |
| --- | --- | --- | --- | --- |
| CCCCNc1ncc2c(-c3ccc(N4CCOCC4)c(F)c3)nc(C3CCC(O)CC3)n2n1 (single isomer, unassigned) [7 (1st peak), 4-[2-(Butylamino)-5-(3-fluoro-4-morpholin-4-ylphenyl)imidazo[5,1-f][1,2,4]triazin-7-yl]cyclohexanol] | 0.5 to 1 | 0.1 to 0.5 |  |  |
| CCCCNc1ncc2c(-c3ccc(N4CCOCC4)c(F)c3)nc(C3CCC(O)CC3)n2n1 (single isomer, unassigned) [7 (2nd peak), 4-[2-(Butylamino)-5-(3-fluoro-4-morpholin-4-ylphenyl)imidazo[5,1-f][1,2,4]triazin-7-yl]cyclohexanol] |  | > 1 |  |  |
| CCCCNc1ncc2c(-c3ccc(CN4CCN(C)CC4)cc3)nc([C@H]3CC[C@H](O)CC3)n2n1 [1 (1st peak, trans-), trans-4-(2-(Butylamino)-5-{4-[(4-methylpiperazin-1-yl)methyl]phenyl}imidazo[5,1-f][1,2,4]triazin-7-yl)cyclohexanol] | 0.1 to 0.5 | ≤ 0.1 | ≤ 0.1 |  |
| CCCCNc1ncc2c(-c3ccc(CN4CCOCC4)cc3)nc([C@H]3CC[C@@H](O)CC3)n2n1 [2 (2nd peak, cis-), cis-4-{2-(Butylamino)-5-[4-(morpholin-4-ylmethyl)phenyl]imidazo[5,1-f][1,2,4]triazin-7-yl}cyclohexanol] | 0.1 to 0.5 | 0.1 to 0.5 | ≤ 0.1 |  |
| COc1c(C(C)n2nc(C)c3c(N)ncnc32)cc(Cl)c(C#N)c1C1CN(C[C@H](C)O)C1 (stereo partly drawn) [Compound 29, 4-[1-(4-amino-3-methyl-1H-pyrazolo[3,4-d]pyrimidin-1-yl)ethyl]-6-chloro-2-{1-[(2S)-2-hydroxypropyl]azetidin-3-yl}-3-methoxybenzonitrile] |  |  |  | < 0.05 |
| COc1c(C(C)n2nc(C)c3c(N)ncnc32)cc(Cl)c(C#N)c1C1CN(CCO)C1 (centres unmarked) [Compound 30, 4-[1-(4-amino-3-methyl-1H-pyrazolo[3,4-d]pyrimidin-1-yl)ethyl]-6-chloro-2-[1-(2-hydroxyethyl)azetidin-3-yl]-3-methoxybenzonitrile] |  |  |  | < 0.05 |
